Values joined by “and” are separate entries in the source; they are usually repeats but may differ in a detail not shown here. Identical values can stand only once. “Also recorded” adds a separate entry of the source.
Experiments:
S1P1 [1] = molecular target: T1, S1P1 (Rattus norvegicus (Rat), UniProt P48303); assay: MicroPET and tracer kinetic modeling in EAE rat model, lumbar spinal cord; format: in vivo; conditions: for Visualization of rat lumbar spinal cord by microPET: EAE and sham rats; for 2TCM Vd / LoganAIF Vd: lumbar spinal cord, n = 3-4; for Tracer uptake in lumbar spinal cord, EAE / Tracer uptake in lumbar spinal cord, sham: summed SUV values 10-60 min post injection, n=3-4; for Increase of tracer uptake in EAE rat lumbar spinal cord compared with shams: microPET; for Increase of tracer uptake in EAE rat lumbar spinal cord compared with shams / Averaged tracer uptake in sham rat spinal cord: 10-60 min post injection; for Averaged tracer uptake in sham rat spinal cord / Tracer uptake in lumbar spinal cord, sham: sham rats
T1 sequence (P48303 whole entry): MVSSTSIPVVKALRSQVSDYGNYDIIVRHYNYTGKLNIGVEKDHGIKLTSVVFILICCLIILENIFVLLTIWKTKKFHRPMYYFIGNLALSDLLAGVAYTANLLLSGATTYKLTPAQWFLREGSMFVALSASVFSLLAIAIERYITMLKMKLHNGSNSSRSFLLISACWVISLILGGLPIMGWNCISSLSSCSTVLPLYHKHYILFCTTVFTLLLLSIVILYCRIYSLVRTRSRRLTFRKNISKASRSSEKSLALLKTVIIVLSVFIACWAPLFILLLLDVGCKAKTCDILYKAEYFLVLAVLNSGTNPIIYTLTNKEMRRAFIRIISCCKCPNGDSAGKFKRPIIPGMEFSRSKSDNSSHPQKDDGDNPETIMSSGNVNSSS
Method: MicroPET scans were performed using an Inveon PET/CT system (Siemens Inc., Knoxville, Tenn.). […] Each rat was secured to a custom-designed acrylic bed equipped with a nosecone for gas anesthesia. PET/CT scans were conducted under 1.5-2% isoflurane anesthesia with the rat placed in transaxial position and centered with the T13 vertebral spine in the field of view. […] A list mode protocol was used with 60-min dynamic data acquisition.
PET image data was processed using filter back projection algorithm with attenuation and scatter corrections. The data were reconstructed per time frame employing an iterative reconstructional algorithm (three-dimensional ordered subset expectation maximization (3D-OSEM), maximum a posteriori (MAP)) and corrected for decay, random coincidences, scatter, and attenuation. […] Image data was analyzed using Inveon Research Workstation software IRW 4.2 (Siemens Inc., Knoxville, Tenn.). The regions of interest (ROI), the lumbar spinal cord and bilateral common carotid arteries, were drawn over the co-registered PET/CT images using the standard protocol published previously. Time-activity curves (TACs) were obtained and were expressed as % ID/g. A two-tailed t-test was used for the comparison of the tracer uptake in EAE rat lumbar spinal cord versus sham. A P value less than 0.05 was considered statistically significant. Time-activity curves were further analyzed using 2-tissue-compartment model (2TCM), as well as Logan graphical analysis, using the ROI over bilateral common carotid arteries for image-based arterial blood input function.

[2] = Nonhuman primate (NHP) brain microPET scan; format: in vivo, macaques; conditions: normal NHP; for Max SUV value in total brain / Blood-brain barrier crossing, NHP brain: microPET; for Time to max SUV in total brain: post injection
Method: To examine if newly-synthesized S1P1 radioligands could cross the BBB of NHPs, two male macaques (9-10 kg) were studied with a microPET Focus 220 scanner (Concorde/CTI/Siemens Microsystems, Knoxville, Tenn.). The welfare of the animals conformed to the requirements of National Institutes of Health (NIH). This work was conducted at the Nonhuman Primate Facility of Washington University in St. Louis with approval from the IACUC. Animals were maintained in facilities with 12-hour dark and light cycles, given access to food and water ad libitum and provided a variety of psychologically enriching tasks to prevent inappropriate deprivation. Animals were scanned under anesthesia (induced with ketamine and glycopyrrolate and maintained with inhalation isoflurane). Core temperature was kept about 37° C. with a heated water blanket. The head was secured in a head holder with the brain in the center of the field of view.
PET scans were collected from O-120 min with the following time frames: 3×1 min, 4×2 min, 3×3 min and 20×5 min. Emission data were corrected for dead time, scatter and attenuation and then reconstructed to a final resolution of 2.0 mm full-width half maximum in all 3 dimensions at the center of the field of view. PET and MRI images were co-registered using automated image registration program (AIR). For quantitative analyses, three-dimensional ROI (the global brain) was identified on the MRI and transformed to the reconstructed PET images to obtain time-activity curves. Activity measures were standardized to body weight and the dose of radioactivity injected to yield standardized uptake value (SUV).

S1P1 [3] = molecular target: T1, S1P1; assay: In vitro autoradiography of [18F]12a in rat brain slices, SEW2871 blocking; format: binding; conditions: rat brain sections, ~6 nM tracer, 10 μM SEW2871, 60 min RT
Method: Adult female Lewis rats (n=2, 100-125 g, Charles River) were used to perform the autoradiography study. The rats (n=2) was euthanized and the brains were collected and cut into 20 μm sequential sections using a Microm cryotome and mounted on glass slides. […] Following the incubation, the brain sections were washed and exposed to the Storage Phosphor Screen in an imaging cassette overnight in −20° C. at dark for 12 h. The distribution of radioactivity was visualized by a Fuji Bio-Imaging Analyzer FLA-7000 (Fuji Photo Film, Tokyo, Japan). Photo-stimulated luminescence (PSL) from the brain slices was quantified using Multi Gauge v3.0 software (Fuji Photo Film Co., Tokyo, Japan). Data were background-corrected, and expressed as photo-stimulated luminescence signals per square millimeter (PSL/mm^2).

[4] = Ex vivo biodistribution in female Lewis rats; parameters: species or system rat; conditions: for Tissue uptake, Blood / Tissue uptake, Bone / Tissue uptake, Brain / Tissue uptake, Fat / Tissue uptake, Heart / Tissue uptake, Kidney / Tissue uptake, Liver / Tissue uptake, Lung / Tissue uptake, Muscle / Tissue uptake, Pancreas / Tissue uptake, Spleen / Tissue uptake, Thymus: n = 4
Excerpt: Organs of blood, heart, lung, muscle, fat, pancreas, spleen, kidney, liver, thymus, brain, and bone were dissected and collected for counting. All the samples were counted with a dilution of the injectate on an automated well counter (Beckman Gamma 8000 well counter). Tissues were weighed and the uptake was reported as background and decay-corrected percent injected dose per gram (% ID/g).
The whole brains were quickly harvested and dissected into regions of cerebellum, brain stem, cortex, striatum, thalamus, and hippocampus, the remainder of the brain was also collected to determine the total brain uptake. Organs of blood, heart, lung, muscle, fat, pancreas, spleen, kidney, liver, thymus, and bone were also dissected and collected for counting. All the samples were counted with a dilution of the injectate on an automated well counter (Beckman Gamma 8000 well counter). Tissues were weighed and the uptake was reported as background and decay-corrected percent injected dose per gram (% ID/g).

[5] = 5 min p.i., literature value; cited from earlier work

For `OCCOCCOCc1ccc(-c2noc(-c3ccc(OCC[18F])c(C(F)(F)F)c3)n2)cc1` [[^18F]12b], the “Visualization of rat lumbar spinal cord by microPET” value (S1P1 [1]) was “clear visualization of lumbar spinal cord”, the “2TCM Vd” value (S1P1 [1]; EAE rats) was 2.30 ± 0.13 mL/g and the “LoganAIF Vd” value (S1P1 [1]; EAE rats) was 2.27 ± 0.18 mL/g. The “Tracer uptake in lumbar spinal cord, EAE” value (S1P1 [1]; EAE rats) was 1.20±0.04 SUV, the “2TCM Vd” value (S1P1 [1]; Sham rats) was 1.76 ± 0.19 mL/g and the “LoganAIF Vd” value (S1P1 [1]; Sham rats) was 1.75 ± 0.21 mL/g. For the same compound, the “Increase of tracer uptake in EAE rat lumbar spinal cord compared with shams” value (S1P1 [1]) was 22.9%, the “Averaged tracer uptake in sham rat spinal cord” value (S1P1 [1]) was 1.0-1.1 and the “Tracer uptake in lumbar spinal cord, sham” value (S1P1 [1]) was 0.98±0.09 SUV. The “Max SUV value in total brain” value [2] was roughly 2.4 SUV, the “Blood-brain barrier crossing, NHP brain” value ([2]; listed as 18F-TZ4881) was “able to cross the blood brain barrier; also recorded: able to cross the BBB” and the “Time to max SUV in total brain” value [2] was roughly 5 min.

With `OCCOCc1ccc(-c2noc(-c3ccc(OCC[18F])c(C(F)(F)F)c3)n2)cc1` [[^18F]12a] the “Visualization of rat lumbar spinal cord by microPET” value (S1P1 [1]) was “clear visualization of lumbar spinal cord”, the “2TCM Vd” value (S1P1 [1]; EAE rats) was 2.18 ± 0.20 mL/g and the “LoganAIF Vd” value (S1P1 [1]; EAE rats) was 2.18 ± 0.20 mL/g. The “Tracer uptake in lumbar spinal cord, EAE” value (S1P1 [1]; EAE rats) was 1.42±0.14 SUV, the “2TCM Vd” value (S1P1 [1]; Sham rats) was 1.80 ± 0.20 mL/g and the “LoganAIF Vd” value (S1P1 [1]; Sham rats) was 1.77 ± 0.24 mL/g. For the same compound, the “Increase of tracer uptake in EAE rat lumbar spinal cord compared with shams” value (S1P1 [1]) was 29.5%, the “Averaged tracer uptake in sham rat spinal cord” value (S1P1 [1]) was 1.0-1.1 and the “Tracer uptake in lumbar spinal cord, sham” value (S1P1 [1]) was 1.10±0.06 SUV. For the same compound, the “Reduction of radioactivity by SEW2871 blocking” value (S1P1 [3]) was roughly 30%, the “Max SUV value in total brain” value [2] was roughly 2.9 SUV and the “Blood-brain barrier crossing, NHP brain” value ([2]; listed as 18F-TZ4877) was “able to cross the blood brain barrier; also recorded: able to cross the BBB”. The “Time to max SUV in total brain” value [2] was roughly 5 min, the “Tissue uptake, Blood” value ([4]; 5 min p.i.) was 0.36 % ID/g and 0.36 ± 0.04 % ID/g and the “Tissue uptake, Blood” value ([4]; 30 min p.i.) was 0.51 ± 0.01 % ID/g. For the same compound, the “Tissue uptake, Blood” value ([4]; 60 min p.i.) was 0.57 ± 0.03 % ID/g, the “Tissue uptake, Blood” value ([4]; 120 min p.i.) was 0.66 ± 0.04 % ID/g and the “Tissue uptake, Bone” value ([4]; 5 min p.i.) was 0.40 ± 0.04 % ID/g. For the same compound, the “Tissue uptake, Bone” value ([4]; 30 min p.i.) was 0.34 ± 0.02 % ID/g, the “Tissue uptake, Bone” value ([4]; 60 min p.i.) was 0.34 ± 0.01 % ID/g and the “Tissue uptake, Bone” value ([4]; 120 min p.i.) was 0.42 ± 0.02 % ID/g. The “Tissue uptake, Brain” value ([4]; 5 min p.i.) was 1.31 % ID/g and 1.31 ± 0.06 % ID/g, the “Tissue uptake, Brain” value ([4]; 30 min p.i.) was 1.34 ± 0.08 % ID/g and the “Tissue uptake, Brain” value ([4]; 60 min p.i.) was 1.13 ± 0.05 % ID/g. For the same compound, the “Tissue uptake, Brain” value ([4]; 120 min p.i.) was 0.87 ± 0.04 % ID/g, the “Tissue uptake, Fat” value ([4]; 5 min p.i.) was 0.24 % ID/g and 0.24 ± 0.03 % ID/g and the “Tissue uptake, Fat” value ([4]; 30 min p.i.) was 1.63 ± 0.36 % ID/g. For the same compound, the “Tissue uptake, Fat” value ([4]; 60 min p.i.) was 1.50 ± 0.08 % ID/g, the “Tissue uptake, Fat” value ([4]; 120 min p.i.) was 1.91 ± 0.19 % ID/g and the “Tissue uptake, Heart” value ([4]; 5 min p.i.) was 1.16 % ID/g and 1.16 ± 0.01 % ID/g. For the same compound, the “Tissue uptake, Heart” value ([4]; 30 min p.i.) was 1.01 ± 0.08 % ID/g, the “Tissue uptake, Heart” value ([4]; 60 min p.i.) was 0.85 ± 0.04 % ID/g and the “Tissue uptake, Heart” value ([4]; 120 min p.i.) was 0.74 ± 0.03 % ID/g. The “Tissue uptake, Kidney” value ([4]; 5 min p.i.) was 2.14 % ID/g and 2.14 ± 0.14 % ID/g, the “Tissue uptake, Kidney” value ([4]; 30 min p.i.) was 1.43 % ID/g and 1.43 ± 0.08 % ID/g and the “Tissue uptake, Kidney” value ([4]; 60 min p.i.) was 1.18 ± 0.04 % ID/g. For the same compound, the “Tissue uptake, Kidney” value ([4]; 120 min p.i.) was 1.01 ± 0.04 % ID/g, the “Tissue uptake, Liver” value ([4]; 5 min p.i.) was 4.87 % ID/g and 4.87 ± 0.27 % ID/g and the “Tissue uptake, Liver” value ([4]; 30 min p.i.) was 3.58 % ID/g and 3.58 ± 0.28 % ID/g. For the same compound, the “Tissue uptake, Liver” value ([4]; 60 min p.i.) was 3.32 ± 0.33 % ID/g, the “Tissue uptake, Liver” value ([4]; 120 min p.i.) was 3.23 ± 0.10 % ID/g and the “Tissue uptake, Lung” value ([4]; 5 min p.i.) was 1.31 % ID/g and 1.31 ± 0.01 % ID/g. For the same compound, the “Tissue uptake, Lung” value ([4]; 30 min p.i.) was 1.20 ± 0.06 % ID/g, the “Tissue uptake, Lung” value ([4]; 60 min p.i.) was 1.01 ± 0.04 % ID/g and the “Tissue uptake, Lung” value ([4]; 120 min p.i.) was 0.87 ± 0.02 % ID/g. For the same compound, the “Tissue uptake, Muscle” value ([4]; 5 min p.i.) was 0.28 % ID/g and 0.28 ± 0.02 % ID/g, the “Tissue uptake, Muscle” value ([4]; 30 min p.i.) was 0.54 ± 0.01 % ID/g and the “Tissue uptake, Muscle” value ([4]; 60 min p.i.) was 0.49 ± 0.03 % ID/g. For the same compound, the “Tissue uptake, Muscle” value ([4]; 120 min p.i.) was 0.42 ± 0.01 % ID/g, the “Tissue uptake, Pancreas” value ([4]; 5 min p.i.) was 2.19 % ID/g and 2.19 ± 0.04 % ID/g and the “Tissue uptake, Pancreas” value ([4]; 30 min p.i.) was 1.52 % ID/g and 1.52 ± 0.04 % ID/g. For the same compound, the “Tissue uptake, Pancreas” value ([4]; 60 min p.i.) was 1.21 ± 0.10 % ID/g, the “Tissue uptake, Pancreas” value ([4]; 120 min p.i.) was 0.98 ± 0.05 % ID/g and the “Tissue uptake, Spleen” value ([4]; 5 min p.i.) was 1.14 % ID/g and 1.14 ± 0.10 % ID/g. The “Tissue uptake, Spleen” value ([4]; 30 min p.i.) was 0.79 % ID/g and 0.79 ± 0.06 % ID/g, the “Tissue uptake, Spleen” value ([4]; 60 min p.i.) was 0.65 ± 0.02 % ID/g and the “Tissue uptake, Spleen” value ([4]; 120 min p.i.) was 0.55 ± 0.03 % ID/g. The “Tissue uptake, Thymus” value ([4]; 5 min p.i.) was 0.79 % ID/g and 0.79 ± 0.12 % ID/g, the “Tissue uptake, Thymus” value ([4]; 30 min p.i.) was 0.68 ± 0.06 % ID/g and the “Tissue uptake, Thymus” value ([4]; 60 min p.i.) was 0.58 ± 0.04 % ID/g. The “Tissue uptake, Thymus” value ([4]; 120 min p.i.) was 0.51 ± 0.05 % ID/g and the “Defluorination in vivo (bone uptake 5 to 120 min)” value ([4]; bone radioactivity unchanged) was “no metabolic defluorination in vivo”.

In the case of `O=C(O)C1CN(Cc2ccc(-c3noc(-c4ccc(OCC[18F])c(C(F)(F)F)c4)n3)cc2)C1` [[^18F]4], the “Brain uptake of previous radiotracer” value [5] is given as 0.49 % ID/g.
